According to paper PMC6008492, “Structure activity relationship studies on rhodanines and derived enethiol inhibitors of metallo-β-lactamases” (Bioorganic & Medicinal Chemistry, 2018):
Where two headings read alike, the source gives them in different places.

Columns and labels:
SPM-1 = SPM-1 (Pseudomonas aeruginosa, UniProt Q8G9Q0); test: SPM-1 inhibition, fluorogenic cephalosporin (FC5) hydrolysis; format: biochemical; details: for remaining activity at 100 µM: read-out: % Residual activity versus SPM-1
Sequence of SPM-1 (Q8G9Q0 entry or part of it): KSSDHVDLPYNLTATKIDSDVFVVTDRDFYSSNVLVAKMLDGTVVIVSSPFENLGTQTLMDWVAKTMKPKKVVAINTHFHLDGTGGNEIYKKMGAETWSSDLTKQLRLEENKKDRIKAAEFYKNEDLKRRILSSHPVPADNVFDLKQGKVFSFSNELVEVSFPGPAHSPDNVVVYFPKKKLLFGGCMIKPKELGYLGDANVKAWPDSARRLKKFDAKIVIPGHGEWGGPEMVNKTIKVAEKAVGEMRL
Method: (§1) Inhibition analyses against bacterial MBLs and SBLs were performed as described previously.[22], [24], [26] Residual enzyme activities were determined for a range of inhibitor concentrations. Non-linear regression fitting of IC50 curves was carried out using a three-parameter dose–response curve in GraphPad Prism. Errors in IC50 values are expressed as: σ(logIC50)/logIC50×IC50
(§2) We first screened the inhibitors against a representative set of presently clinically important and other MBLs[22], comprising both Class B1 enzymes (NDM-1, New Delhi MBL-1; VIM-2, Verona integron–encoded MBL-2; BcII, Bacillus cereus II MBL; SPM-1, São Paulo MBL-1; IMP-1, imipenemase MBL-1) and the Class B2 MBL CphA (carbapenem hydrolysing MBL from Aeromonas hydrophila).[22] The latter MBL (CphA) only utilises one active site Zn(II) ion in catalysis, whilst the others normally use two Zn(II) ions.
Figure S5: IC50 curves for SPM-1 inhibition time courses. Residual activities were calculated from the
(§3) initial rate of FC5 hydrolysis after incubation of the enzyme with the inhibitor for 10 minutes. […]

IMP-1 = target: T1, IMP-1 (Serratia marcescens, UniProt P52699); test: IMP-1 inhibition, fluorogenic cephalosporin (FC5) hydrolysis; format: biochemical; details: for remaining activity at 100 µM: read-out: % Residual activity versus IMP-1
T1 construct: made in house
T1 sequence (P52699 19-246, looked up, species assumed): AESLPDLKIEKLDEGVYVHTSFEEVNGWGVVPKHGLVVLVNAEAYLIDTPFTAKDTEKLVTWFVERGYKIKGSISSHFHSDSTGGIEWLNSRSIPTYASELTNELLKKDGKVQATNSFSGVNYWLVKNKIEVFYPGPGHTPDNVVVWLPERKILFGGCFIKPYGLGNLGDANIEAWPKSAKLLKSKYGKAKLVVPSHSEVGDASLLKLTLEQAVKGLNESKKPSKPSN
Method: as §1, §2
Figure S3: IC50 curves for IMP-1 inhibition time courses. Residual activities were calculated from the
initial rate of FC5 hydrolysis after incubation of the enzyme with the inhibitor for 10 minutes.

BcII = target: T2, BcII (Bacillus cereus, UniProt P04190); test: biochemical; details: for remaining activity at 100 µM: read-out: % Residual activity versus BcII
T2 construct: made in house
T2 sequence (P04190 31-257): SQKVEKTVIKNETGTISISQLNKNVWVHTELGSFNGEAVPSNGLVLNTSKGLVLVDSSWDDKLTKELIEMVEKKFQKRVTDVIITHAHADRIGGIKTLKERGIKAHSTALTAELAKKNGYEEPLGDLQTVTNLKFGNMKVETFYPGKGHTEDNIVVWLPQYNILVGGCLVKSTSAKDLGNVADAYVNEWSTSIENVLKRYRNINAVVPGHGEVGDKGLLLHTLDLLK
Method: as §1, §2
Figure S2: IC50 curves for BcII inhibition time courses. Residual activities were calculated from the initial
rate of FC5 hydrolysis after incubation of the enzyme with the inhibitor for 10 minutes. […]

VIM-2 = target: T3, VIM-2 (Escherichia coli, UniProt Q5U7L7); test: biochemical; details: for remaining activity at 100 µM: read-out: % Residual activity versus VIM-2
T3 construct: made in house
Method: as §1
as §2, with “ions. We also screened the inhibitors against a representative panel of SBLs from different classes (TEM-1, Temoneira β-lactamase-1, class A; CTX-M-15, cefotaxime hydrolysing β-lactamase from Munich 15, class A, extended spectrum β-lactamase (ESBL); AmpC E. coli, class C, and OXA-10, oxacillinase-10, class D).” for “ions.”
Figure S6: IC50 curves for VIM-2 inhibition time courses. Residual activities were calculated from the
as §3

NDM-1 = target: T4, NDM-1 (Klebsiella pneumoniae, UniProt C7C422); test: NDM-1 inhibition, fluorogenic cephalosporin (FC5) hydrolysis; format: biochemical; details: for remaining activity at 100 µM: read-out: % Residual activity versus NDM-1
T4 construct: made in house
T4 sequence (C7C422 29-270, looked up, species assumed): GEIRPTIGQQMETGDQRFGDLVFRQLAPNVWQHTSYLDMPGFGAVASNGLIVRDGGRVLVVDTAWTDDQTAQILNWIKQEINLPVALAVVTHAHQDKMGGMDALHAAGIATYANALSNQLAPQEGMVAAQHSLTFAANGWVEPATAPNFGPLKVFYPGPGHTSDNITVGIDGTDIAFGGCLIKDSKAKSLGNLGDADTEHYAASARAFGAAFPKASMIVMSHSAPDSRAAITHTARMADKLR
Method: as §1, §2
Figure S4: IC50 curves for NDM-1 inhibition time courses. Residual activities were calculated from the
as §3

[1] = system: MBLs (SPM-1, IMP-1, BcII, VIM-2, NDM-1); format: biochemical; details: for MBL inhibition, result in words: at 100 µM
Method: as §1
as §2, with “ions. We also screened the inhibitors against a representative panel of SBLs from different classes (TEM-1, Temoneira β-lactamase-1, class A; CTX-M-15, cefotaxime hydrolysing β-lactamase from Munich 15, class A, extended spectrum β-lactamase (ESBL); AmpC E. coli, class C, and OXA-10, oxacillinase-10, class D).” for “ions.”

CphA = target: T5, CphA (Aeromonas hydrophila, UniProt P26918); test: CphA (subclass B2 MBL) inhibition; format: biochemical
T5 construct: made in house
T5 sequence (P26918 28-254): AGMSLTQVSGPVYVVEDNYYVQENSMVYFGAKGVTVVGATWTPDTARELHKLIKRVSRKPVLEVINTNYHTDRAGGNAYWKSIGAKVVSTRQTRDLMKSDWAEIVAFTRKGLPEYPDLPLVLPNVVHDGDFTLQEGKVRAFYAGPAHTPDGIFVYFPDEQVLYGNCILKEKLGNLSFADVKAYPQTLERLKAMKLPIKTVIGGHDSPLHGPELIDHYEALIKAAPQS
Method: as §1
as §2, with “ions. We also screened the inhibitors against a representative panel of SBLs from different classes (TEM-1, Temoneira β-lactamase-1, class A; CTX-M-15, cefotaxime hydrolysing β-lactamase from Munich 15, class A, extended spectrum β-lactamase (ESBL); AmpC E. coli, class C, and OXA-10, oxacillinase-10, class D).” for “ions.”

TEM-1 = target: T6, TEM-1 (Escherichia coli, UniProt P62593); test: SBL inhibition, TEM-1; format: biochemical; details: read-out: residual activity TEM-1
T6 construct: made in house
T6 sequence (P62593 24-286 limits assumed): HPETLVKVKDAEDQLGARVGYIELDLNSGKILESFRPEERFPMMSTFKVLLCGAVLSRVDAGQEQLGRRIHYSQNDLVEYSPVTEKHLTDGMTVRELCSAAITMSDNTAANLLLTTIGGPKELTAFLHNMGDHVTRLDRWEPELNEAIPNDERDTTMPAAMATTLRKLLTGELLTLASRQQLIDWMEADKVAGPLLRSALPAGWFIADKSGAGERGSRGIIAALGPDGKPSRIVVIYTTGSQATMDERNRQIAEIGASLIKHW
Method: as §1
as §2, with “ions. We also screened the inhibitors against a representative panel of SBLs from different classes (TEM-1, Temoneira β-lactamase-1, class A; CTX-M-15, cefotaxime hydrolysing β-lactamase from Munich 15, class A, extended spectrum β-lactamase (ESBL); AmpC E. coli, class C, and OXA-10, oxacillinase-10, class D).” for “ions.”
(§4) Figure S1. Residual activities of serine-β-lactamases (SBLs) upon inhibition by rhodanines and enethiols at
(§5) Inhibition of intact rhodanine on a panel of SBLs
(§6) Inhibition of intact rhodanine amide on a panel […]

CTX-M-15 = target: T7, CTX-M-15 (Escherichia coli, UniProt Q9EXV5); test: SBL inhibition, CTX-M-15; format: biochemical; details: read-out: residual activity CTX-M-15
T7 construct: made in house
T7 sequence (Q9EXV5 29-291, species assumed): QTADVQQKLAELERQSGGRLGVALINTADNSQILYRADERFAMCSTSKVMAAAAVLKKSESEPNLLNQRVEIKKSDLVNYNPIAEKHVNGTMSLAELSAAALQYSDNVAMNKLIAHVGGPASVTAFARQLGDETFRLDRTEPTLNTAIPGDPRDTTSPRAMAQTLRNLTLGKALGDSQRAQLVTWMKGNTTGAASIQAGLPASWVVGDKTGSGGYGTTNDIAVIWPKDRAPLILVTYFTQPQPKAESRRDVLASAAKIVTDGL
Method: as §1
as §2, with “ions. We also screened the inhibitors against a representative panel of SBLs from different classes (TEM-1, Temoneira β-lactamase-1, class A; CTX-M-15, cefotaxime hydrolysing β-lactamase from Munich 15, class A, extended spectrum β-lactamase (ESBL); AmpC E. coli, class C, and OXA-10, oxacillinase-10, class D).” for “ions.”
as §4, §5, §6

AmpC = target: T8, AmpC (Escherichia coli, UniProt P00811); test: SBL inhibition, AmpC; format: biochemical, E. coli; details: read-out: residual activity AmpC
T8 construct: made in house
T8 sequence (P00811 20-377): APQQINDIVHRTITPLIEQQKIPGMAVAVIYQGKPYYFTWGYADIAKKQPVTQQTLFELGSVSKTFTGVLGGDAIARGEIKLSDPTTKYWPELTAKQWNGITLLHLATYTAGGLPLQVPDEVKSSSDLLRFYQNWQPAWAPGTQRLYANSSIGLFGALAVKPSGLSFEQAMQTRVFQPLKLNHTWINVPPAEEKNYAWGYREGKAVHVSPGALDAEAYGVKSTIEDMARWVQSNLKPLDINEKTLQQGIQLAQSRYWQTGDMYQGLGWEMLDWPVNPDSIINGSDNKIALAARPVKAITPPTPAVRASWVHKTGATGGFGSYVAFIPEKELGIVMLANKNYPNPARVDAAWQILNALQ
Method: as §1
as §2, with “ions. We also screened the inhibitors against a representative panel of SBLs from different classes (TEM-1, Temoneira β-lactamase-1, class A; CTX-M-15, cefotaxime hydrolysing β-lactamase from Munich 15, class A, extended spectrum β-lactamase (ESBL); AmpC E. coli, class C, and OXA-10, oxacillinase-10, class D).” for “ions.”
as §4, §5, §6

OXA-10 = target: T9, OXA-10 (Pseudomonas aeruginosa, UniProt P14489); test: SBL inhibition, OXA-10; format: biochemical; details: read-out: residual activity OXA-10
T9 construct: made in house
T9 sequence (P14489 20-266, species assumed): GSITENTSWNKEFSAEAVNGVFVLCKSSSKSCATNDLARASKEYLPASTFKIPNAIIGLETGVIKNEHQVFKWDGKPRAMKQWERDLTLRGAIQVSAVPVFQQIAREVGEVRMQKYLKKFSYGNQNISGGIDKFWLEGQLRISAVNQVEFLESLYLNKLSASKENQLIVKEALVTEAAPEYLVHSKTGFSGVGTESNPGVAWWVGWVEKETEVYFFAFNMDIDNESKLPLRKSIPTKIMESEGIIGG
Method: as §1
as §2, with “ions. We also screened the inhibitors against a representative panel of SBLs from different classes (TEM-1, Temoneira β-lactamase-1, class A; CTX-M-15, cefotaxime hydrolysing β-lactamase from Munich 15, class A, extended spectrum β-lactamase (ESBL); AmpC E. coli, class C, and OXA-10, oxacillinase-10, class D).” for “ions.”
as §4, §5, §6

[2] = Table 2, read-out: IC50 versus SPM-1
[3] = Table 2, read-out: IC50 versus BcII
[4] = enethiols 6 assayed as sodium salts, 10 min incubation, read-out: IC50 SPM-1 (converted)
[5] = enethiols 6 assayed as sodium salts, 10 min incubation, read-out: IC50 IMP-1 (converted)
[6] = enethiols 6 assayed as sodium salts, 10 min incubation, read-out: IC50 BcII (converted)
[7] = enethiols 6 assayed as sodium salts, 10 min incubation, read-out: IC50 VIM-2 (converted)
[8] = enethiols 6 assayed as sodium salts, 10 min incubation, read-out: IC50 NDM-1
[9] = lower end of the range, read-out: IC50 values from (lowest across the MBL panel)

| Structure (SMILES) | MBL inhibition, result in words [1] | IC50 (CphA) [nM] | IC50 (SPM-1; [4]) [nM] | IC50 (IMP-1; [5]) [nM] | IC50 (BcII; [6]) [nM] | IC50 (VIM-2; [7]) [nM] | IC50 (NDM-1; [8]) [nM] | IC50 [1, 9] [nM] | also measured |
| --- | --- | --- | --- | --- | --- | --- | --- | --- | --- |
| O=C(O)/C(O)=C/c1ccc(F)cc1 [Compound 17] | near inactive |  |  |  |  |  |  |  | remaining activity at 100 µM (SPM-1): 93 ± 2%; remaining activity at 100 µM (IMP-1): 100%; remaining activity at 100 µM (BcII): 90 ± 3%; remaining activity at 100 µM (VIM-2): 100%; remaining activity at 100 µM (NDM-1): 97 ± 4% |
| CC1=N/C(=C\c2ccc(F)cc2)C(=O)O1 [Compound 16] | near inactive |  |  |  |  |  |  |  | remaining activity at 100 µM (SPM-1): 87 ± 1%; remaining activity at 100 µM (IMP-1): 100%; remaining activity at 100 µM (BcII): 92 ± 2%; remaining activity at 100 µM (VIM-2): 100%; remaining activity at 100 µM (NDM-1): 97 ± 2% |
| O=C(O)C(O)Cc1ccccc1 (stereo not drawn) [3-Phenyllactic acid, reference compound] | inactive | > 100000 |  |  |  |  |  |  | IC50 (SPM-1; [2]): > 100000 nM; IC50 (IMP-1): > 100000 nM; IC50 (BcII; [3]): > 100000 nM; IC50 (VIM-2): > 100000 nM; IC50 (NDM-1): > 100000 nM |
| CN1CCN(NC(=O)CN2C(=O)/C(=C/c3c(Cl)cccc3Cl)SC2=S)CC1 [Compound 5m] |  | > 50000 | 200 | 200 | 200 | 300 | 28400 |  |  |
| CN1CCN(NC(=O)CN2C(=O)/C(=C/c3c(F)ccc(F)c3F)SC2=S)CC1 [Compound 5k] |  |  | 1500 | 1600 | 3500 | 2600 | 40100 |  | IC50 ([1]; SPM-1, IMP-1, BcII, VIM-2, read-out: IC50 values for all the tested B1 subclass MBLs, with the exception of NDM-1): < 3500 nM |
| O=C(O)C(O)c1ccccc1 (stereo not drawn) [Mandelic acid, reference compound] | inactive | > 100000 |  |  |  |  |  |  | IC50 (SPM-1; [2]): > 100000 nM; IC50 (IMP-1): > 100000 nM; IC50 (BcII; [3]): > 100000 nM; IC50 (VIM-2): > 100000 nM; IC50 (NDM-1): > 100000 nM |
| O=C(O)/C(S)=C/c1c2ccccc2cc2ccccc12 [Compound 6r] |  |  |  |  | > 50000 | 50 ± 1 | 1700 ± 600 |  | remaining activity at 200 µM (TEM-1): ~1%; remaining activity at 200 µM (CTX-M-15): ~65%; remaining activity at 200 µM (AmpC): ~41%; remaining activity at 200 µM (OXA-10): ~47% |
| CN1CCN(NC(=O)CN2C(=O)/C(=C/c3c(Cl)ccc(Cl)c3Cl)SC2=S)CC1 [ML302, reference compound] |  |  | 100 | 90 | 300 | 60 | 15600 |  | fold less active than ML302F, SPM-1 (SPM-1; ratio of IC50 values): ~5 fold; fold less active than ML302F, BcII (BcII; ratio of IC50 values): ~4 fold; fold less active than ML302F, NDM-1 (NDM-1; ratio of IC50 values): ~15 fold; IC50 (CphA; read-out: IC50 CphA): > 50000 nM |
| O=C(O)/C(S)=C/c1cc(Cl)ccc1Cl [Compound 6o] |  |  | 800 | 4700 | 1600 | 1500 | 45300 | 800 |  |
| O=C(O)/C(S)=C/c1c(F)cccc1F [Compound 6p] |  |  | 60 | 200 | 100 | 200 | 21500 | 60 |  |
| CN1CCN(NC(=O)CN2C(=O)/C(=C/c3c4ccccc4cc4ccccc34)SC2=S)CC1 [Compound 5r] |  |  |  |  |  |  |  |  | remaining activity at 200 µM (TEM-1): ~6%; remaining activity at 200 µM (CTX-M-15): ~40%; remaining activity at 200 µM (AmpC): ~18%; remaining activity at 200 µM (OXA-10): ~47% |
| Cc1cccc(C)c1/C=C(\S)C(=O)O [Compound 6q] |  |  | 20 | 20 | 200 | 70 | 4900 | 20 | IC50 ([1]; upper end of the range, read-out: IC50 values to (highest across the MBL panel)): 4900 nM |
| O=C(O)/C(S)=C/c1c(Cl)cccc1Cl [Compound 6m] |  | 800 ± 20 | 10 | 10 | 70 | 30 | 600 | 10 |  |
